Measurements: patent US4795639A, “Potentiating formulations” (priority 1971, dated 1989)
“And” between values parts separate entries of the source, which are not always exact repeats. Equal values may be shown once.

How the values were obtained:
[1] = system: Staphylococcus aureus N 491; test: growth rate inhibition, turbidometric, Wellcome Nutrient Broth; type: cell-based; conditions: Staphylococcus aureus, N491, 7 h, read-out: Percentage of inhibition at 7 hrs.
[2] = system: Staphylococcus aureus CN 491; test: testing discs on standard nutrient medium; type: cell-based; conditions: per 6 mm filterpaper disc: TMP 1.25 μg, SMX 23.75 μg, DMHP 100 μg, as in label
[3] = system: Streptococcus faecalis CN 478; test: testing discs on standard nutrient medium; type: cell-based; conditions: per 6 mm filterpaper disc: TMP 1.25 μg, SMX 23.75 μg, DMHP 100 μg, as in label
Proteus vulgaris CN 329 = test: testing discs on standard nutrient medium; type: cell-based; conditions: per 6 mm filterpaper disc: TMP 1.25 μg, SMX 23.75 μg, DMHP 100 μg, as in label
Escherichia coli CN 314 = test: testing discs on standard nutrient medium; type: cell-based; conditions: per 6 mm filterpaper disc: TMP 1.25 μg, SMX 23.75 μg, DMHP 100 μg, as in label
[4] = system: Pseudomonas aeruginosa CN 200; test: testing discs on standard nutrient medium; type: cell-based; conditions: per 6 mm filterpaper disc: TMP 1.25 μg, SMX 23.75 μg, DMHP 100 μg, as in label
Staphylococcus aureus [5] = test: M.I.C. in Wellcome Nutrient Agar, 18 hours at 37° C.; type: cell-based; conditions: DMHP Nil
Staphylococcus aureus [6] = test: zone inhibition, pteridine in agar, drugs in well; type: cell-based; conditions: for complete zone inhibition, SMX (300) / zone including partial inhibition, SMX (300): SMX 300 μg/ml; for complete zone inhibition, TMP + SMX (5) (100) / zone including partial inhibition, TMP + SMX (5) (100): TMP 5 + SMX 100 μg/ml
Description: (§1) The pteridine was included in a soya peptone medium of low thymidine content (Wellcotest Sensitivity Test Agar) contained in a Petri-dish and the other component(s) added to the well resulting from the removal of a small plug from the medium. The surface of the medium was inoculated with the test organism and then incubated.

Pseudomonas aeruginosa = test: zone inhibition, pteridine in agar, drugs in well; type: cell-based; conditions: for complete zone inhibition, SMX (300) / zone including partial inhibition, SMX (300): SMX 300 μg/ml; for zone including partial inhibition, TMP (30): TMP 30 μg/ml; for complete zone inhibition, TMP + SMX (5) (100) / zone including partial inhibition, TMP + SMX (5) (100): TMP 5 + SMX 100 μg/ml
Description: as §1

Pasteurella multocida = Pasteurella multocida infection in chicks; type: in vivo
E. tenella = test: coccidiosis screening test in chicks, E. tenella; type: in vivo, Eimeria tenella; conditions: Expt. 4; 100,000 oocysts; p.p.m SQX/DV/DMHP: b374 10/-/-; b375 -/20/-; b376 -/-/10; b377 10/-/10; b378 -/20/10; b379 10/20/-; b381 10/20/10; b382 20/-/-; b383 -/40/-; b384 -/-/20; b385 20/-/20; b386 -/40/20; b387 20/40/-; b389 20/40/20
Description: "Screening tests" were performed to establish the effectiveness of the compounds of formula (I) both alone and in combination with a competitor and or an inhibitor and to determine the most useful levels of relative concentrations of each component in combatting or suppressing coccidiosis.
Groups of Ranger cockerels, housed in small, heated cages with wire floors situated in enironmentally controlled isolation rooms, were infected orally with sporulated oocysts of the Eimeria spp such as E. tenella or E. acervulina. The appropriate test compound(s), (DMHP, sulphaquinoxaline (SQX) or diaveridine (DV) or any combination of these) were incorporated in a small quantity of specially formulated laboratory ration deficient in Vitamin K (`L.D.4 mash`), as a 1/10 pre-mix, which was then mixed into the diet on a horizontal roller drum mixed and administered to groups of chicks one day prior to infection, leaving some groups as untreated controls. Administration was continued for several days, for example about 8 or 9 days.
The amount of damage, marked by lesions in the caecal walls was investigated in those chicks that died during the course of the experiment, and in those sacrificed on the final day of administration, and compared with the untreated controls as a basis for the determination of therapeutic activity. In addition the mortality rate and the percentage weight gains in the various groups were assessed. A marked or definite effect of the administered drug could be recognised even when the mortality rates were similar or identical, since the increase in the weight gains and the reduction of the extension of lesions indicated by the lesion score, is characteristic of an improvement. […]
4:1 sulphaquinoxaline/diaveridine mixtures at levels of 80/20, 60/15, 40/10 and 20/5 p.p.m. were administered alone and in combination with a wide range of low concentrations of DMHP to the birds.
The results of these screening tests are set forth in Table 4 showing the concentration of the various component compounds in parts per million of the bird's diet, the mortality from coccidiosis, the percentage weight gain, the lesion score the oocyst output, and the activity. The caecal lesion index is calculated using a score system where: […]
In addition a score of 4 is assigned to any bird that dies of coccidiosis during the experiment. [formula] In the activity column, +++, ++, +, ± and - relate respectively to very high, high, slight, doubtful and nil activity of the test drug against the Eimeria infection.

[7] = pteridine 3 μg/ml, TMP 30 μg/ml
[8] = pteridine 10 μg/ml, TMP 30 μg/ml

SMILES: Cc1cc(NS(=O)(=O)c2ccc(N)cc2)no1 [Sulphamethoxazole, sulphamethoxazole]
- inhibition at 0.1 µg/mL [1]: 16%
- Size of zone in cm (×6 magnification) [2]: 26 cm
- Size of zone in cm (×6 magnification) [3]: 0 cm
- Size of zone in cm (×6 magnification) (Proteus vulgaris CN 329): 36 cm
- Size of zone in cm (×6 magnification) (Escherichia coli CN 314): 28 cm
- Size of zone in cm (×6 magnification) [4]: 32 cm
- Sulphamethoxazole M.I.C. (Staphylococcus aureus [5]): 1.0 µg/mL

SMILES: CCC1(CC)Nc2nc(N)nc(O)c2N=C1CO [R = CH2 OH R = R^2 = Et, 2-amino-4-hydroxy-6-hydroxymethyl-7,7-diethyl-7,8-dihydropteridine]
- synergism with TMP and SMX against Staphylococcus aureus (Staphylococcus aureus [6]; compared with DMHP): slightly more active than DMHP
- complete zone inhibition, SMX (300) (Staphylococcus aureus [6]; pteridine 3 μg/ml): 6.5 centimeters
- zone including partial inhibition, SMX (300) (Staphylococcus aureus [6]; pteridine 3 μg/ml): 12.5 centimeters
- complete zone inhibition, TMP (30) (Staphylococcus aureus [6]; [7]): 8.5 centimeters
- zone including partial inhibition, TMP (30) (Staphylococcus aureus [6]; [7]): 10.5 centimeters
- complete zone inhibition, TMP + SMX (5) (100) (Staphylococcus aureus [6]; pteridine 3 μg/ml): 10.5 centimeters
- zone including partial inhibition, TMP + SMX (5) (100) (Staphylococcus aureus [6]; pteridine 3 μg/ml): 12.5 centimeters
- complete zone inhibition, SMX (300) (Staphylococcus aureus [6]; pteridine 10 μg/ml): 10.5 centimeters
- zone including partial inhibition, SMX (300) (Staphylococcus aureus [6]; pteridine 10 μg/ml): 14.0 centimeters
- complete zone inhibition, TMP (30) (Staphylococcus aureus [6]; [8]): 10.5 centimeters
- zone including partial inhibition, TMP (30) (Staphylococcus aureus [6]; [8]): 13.0 centimeters
- complete zone inhibition, TMP + SMX (5) (100) (Staphylococcus aureus [6]; pteridine 10 μg/ml): 11.0 centimeters
- zone including partial inhibition, TMP + SMX (5) (100) (Staphylococcus aureus [6]; pteridine 10 μg/ml): 14.5 centimeters
- complete zone inhibition, TMP (30) (Staphylococcus aureus [6]; pteridine 30 μg/ml in medium, TMP 30 μg/ml in well, about 6× magnification): 12.5 centimeters
- complete zone inhibition, SMX (300) (Staphylococcus aureus [6]; pteridine 30 μg/ml): 12.5 centimeters
- zone including partial inhibition, SMX (300) (Staphylococcus aureus [6]; pteridine 30 μg/ml): 17.0 centimeters
- zone including partial inhibition, TMP (30) (Staphylococcus aureus [6]; pteridine 30 μg/ml, TMP 30 μg/ml): 17.0 centimeters
- complete zone inhibition, TMP + SMX (5) (100) (Staphylococcus aureus [6]; pteridine 30 μg/ml): 12.5 centimeters
- zone including partial inhibition, TMP + SMX (5) (100) (Staphylococcus aureus [6]; pteridine 30 μg/ml): 17.0 centimeters
- complete zone inhibition, SMX (300) (Pseudomonas aeruginosa; pteridine 3 μg/ml): 9.0 centimeters
- zone including partial inhibition, SMX (300) (Pseudomonas aeruginosa; pteridine 3 μg/ml): 13.0 centimeters
- zone including partial inhibition, TMP (30) (Pseudomonas aeruginosa; pteridine 3 μg/ml): 3.0 centimeters
- complete zone inhibition, TMP + SMX (5) (100) (Pseudomonas aeruginosa; pteridine 3 μg/ml): 7.0 centimeters
- zone including partial inhibition, TMP + SMX (5) (100) (Pseudomonas aeruginosa; pteridine 3 μg/ml): 10.0 centimeters
- complete zone inhibition, SMX (300) (Pseudomonas aeruginosa; pteridine 10 μg/ml): 13 centimeters
- zone including partial inhibition, SMX (300) (Pseudomonas aeruginosa; pteridine 10 μg/ml): 16.0 centimeters
- zone including partial inhibition, TMP (30) (Pseudomonas aeruginosa; pteridine 10 μg/ml): 5.0 centimeters
- complete zone inhibition, TMP + SMX (5) (100) (Pseudomonas aeruginosa; pteridine 10 μg/ml): 8.0 centimeters
- zone including partial inhibition, TMP + SMX (5) (100) (Pseudomonas aeruginosa; pteridine 10 μg/ml): 12.0 centimeters

SMILES: COc1ccc(Cc2cnc(N)nc2N)cc1OC [DV, 2,4-diamino-5-(3',4'-dimethoxybenzyl) pyrimidine]
- activity alone against Pasteurella multocida (Pasteurella multocida; Example 3 Experiment 1): low activity alone
- Average Weight of surviving chicks (Pasteurella multocida; Table 5, doses as in E44): 140.0 gm
- Cumulative Mortality on day 2 (Pasteurella multocida; Table 5, doses as in E44): 2 and 1
- Cumulative Mortality on day 5 (Pasteurella multocida; Table 5, doses as in E44): 6 and 5
- Cumulative Mortality on day 6 (Pasteurella multocida; Table 5, doses as in E44): 6 and 8
- Cumulative Mortality on day 7 (Pasteurella multocida; Table 5, doses as in E44): 7 and 9
- Cumulative Mortality on day 8 (Pasteurella multocida; Table 5, doses as in E44): 7 and 10
- Cumulative Mortality on day 9 (Pasteurella multocida; Table 5, doses as in E44): 7
- Cumulative Mortality on day 10 (Pasteurella multocida; Table 5, doses as in E44): 7
- Mortality from Coccidiosis (E. tenella): 8/10 and 8/9
